In publication PMC6426897, “Inhibition of NLRP3 inflammasome activation by cell-permeable stapled peptides” (Scientific Reports, 2019):
Where a SMILES comes first, the peptide text is derived from it. Bridges are numbered along the chain shown (N, C = ends). [ ]: non-standard residue; d: D form. R8 = C=CCCCCCC[C@@](C)(N)C(=O)O; S5 = C=CCCC[C@](C)(N)C(=O)O

Tests used:
[1] = test system: NLRP3 inflammasome; experiment: Western blot of processed IL-1β p17 and Casp-1 p20 in THP-1 supernatants and of pro-forms in lysates; format: cell-based, human; settings: THP-1, LPS/nigericin, Fig. 8D
Protocol: (§1) THP-1 cells and monocytes were incubated with NLRP3^PYD (12.5–25–50 μM), ASC^PYD #5 (12.5-25-50-100 μM) or ASC^PYD #6 (12.5-25-50-100 μM) for the indicated durations. Cells were then washed once with PBS and primed with E. coli LPS (0.1 μg/ml, Invivogen) for 4 h followed by stimulation with nigericin (10 μM) for an additional 1 h or ATP ([…]) for an additional 30 min. The cell culture supernatants were then collected and centrifuged at 500 × g to remove cells and cellular debris.
Cell-free supernatants were mixed 1:4 to cold acetone and incubated at −20 °C for at least 1 h. The mixtures were then centrifuged at 15,000 rpm for 15 min at 4 °C. Supernatants were discarded and pellets re-suspended in 1X Laemmli buffer. Total cell lysates were prepared using RIPA buffer containing 150 mM NaCl, 0.5% sodium deoxycholate, 0.1% SDS, 50 mM Tris-HCl pH 8.0 and 1% Triton-X-100. Protein concentrations were determined by BCA assay (Thermo Scientific, cat. 23227) following the manufacturer’s instructions. Lysates were reconstituted in Laemmli buffer (20–50 μg), boiled and separated by SDS–PAGE, and transferred onto PVDF membranes. […]

[2] = test system: THP-1 cells; experiment: Internalization of FAM-labeled peptides by flow cytometry; format: in vitro ADME, human; settings: THP-1, 37 °C, 4, 8 and 24 hours; FACS; three independent experiments
Protocol: As NLRP3 and ASC are cytosolic proteins, we examined whether the designed peptides could be taken up by monocytic cells to exert their biological effects. To assess peptide internalization, ms_NLRP3^PYD, ms_ASC^PYD #5 and #6 peptides were labeled with the FAM fluorophore at the N-terminus. Internalization of the FAM-labeled peptides was measured as the mean fluorescence intensity (MFI) by fluorescence-assisted cell sorting (FACS). THP-1 cells were incubated with FAM-labeled ms_NLRP3^PYD (12.5, 25 and 50 μM), ms_ASC^PYD #5 and #6 peptides (50 and 100 μM) for 4, 8 and 24 hours. The internalization of the three FAM-labelled peptides was concentration dependent (Fig. 7A,B). […] We also examined the internalization of FAM-labeled peptides in THP-1 cells by confocal microscopy. THP-1 cells were incubated with FAM-ms_NLRP3^PYD (100 μM), FAM-ms_ASC^PYD #5 or FAM-ms_ASC^PYD #6 (100 μM) for 4, 8 and 18 hours. FAM-labeled peptides localized primarily in the cytosol, but not in the nucleus, of THP-1 cells (Fig. 7C).
THP-1 cells (0.5 × 10^6) were incubated with FAM-NLRP3^PYD (12.5-25-50 μM), FAM-ASC^PYD #5 or FAM-ASC^PYD #6 (50-100 μM) peptides in a 6 well-plate. After 4, 8 and 24 h incubation, THP-1 cells were washed twice with PBS and harvested. The analysis was performed on a BD FACSCANTO II (BD Biosciences), and the data were analyzed using FlowJo (Treestar).

[3] = test system: NLRP3 inflammasome; experiment: IL-1β release from THP-1 cells stimulated with LPS and nigericin (ELISA); format: cell-based, human; settings: THP-1, LPS 0.1 μg/ml 4 h, nigericin 10 μM 1 h, Fig. 8A
Protocol: We next examined whether the ASC peptides could inhibit IL-1β production, which is regulated by the inflammasome. We used THP-1 human monocytic cells to study inflammasome activation as they express high levels of NLRP3, ASC, and pro-casp-1. THP-1 cells were incubated with ms_ASC^PYD #1–6 or ms_NLRP3^PYD peptides at increasing concentrations for 4 hours and were then stimulated with LPS for 4 hours, followed by the NLRP3 activator nigericin for 1 hour. IL-1β levels were measured in the culture supernatant. […] The ms_ASC^PYD peptides reduced IL-1β production from THP-1 cells in response to LPS/nigericin stimulation to variable degrees (Fig. 6A). […] We decided to continue investigating in detail the inhibitory effects of ms_ASC^PYD #5 and #6 peptides, as their estimated binding energies matched well with the experimental data of suppression of ASC-dependent IL-1 release in a dose-dependent manner. Since ms_ASCPYD #6 is the shorter version of ms_ASCPYD #5, this selection also enabled us to verify the effect of varying peptide lengths.
Human monocytic THP-1 cells (1 × 10^7 cells) were plated in a 10-cm tissue culture dish and treated with PMA (200 nM) overnight to differentiate monocytic cells into macrophages. Cells were then washed and allowed to rest in fresh media for another day. For stimulation, differentiated THP-1 cells were trypsinized and seeded in 96-well plates (2 × 10^6/well). Peripheral blood mononuclear cells were isolated by Ficoll-Hypaque density gradient centrifugation from buffy coats obtained from anonymous donors provided by the National University Hospital Blood Bank, Singapore. Isolation of monocytes was performed using negative selection with the Monocyte Isolation Kit II (Miltenyi Biotech), following the manufacturer’s instructions. Monocytes were plated in tissue culture non-treated 96-well plates (2.5 × 10^5/well) in 250 µl RPMI 1640-Glutamax media supplemented with 3% human AB serum (Gemini Bio Products).
as §1
IL-1β levels were measured using antibodies from eBioscience (cat. #14-7018-81 and #13-7016-85), following the manufacturer’s instructions. IL-18 levels were measured using antibodies from MBL (D044-3 and D045-6) following the manufacturer’s instructions. The absorbance was measured at 450 nm with the reference wavelength at 570 nm, using an M200 Infinite plate reader (Tecan).

| SMILES | Caspase-1 activation (caspase-1 p20 in supernatants) [1] | Fluorescent signal (MFI) of internalized peptide over time [2] | Inhibition of IL-1β production ([3]; 50 μM peptide) | Inhibition of IL-1β production ([3]; 100 μM peptide) |
| --- | --- | --- | --- | --- |
| CC[C@H](C)[C@@H]1NC(=O)[C@H](CCCCN)NC(=O)[C@H](C)NC(=O)[C@H](CC(C)C)NC(=O)[C@H](CCCCN)NC(=O)[C@](C)(NC(=O)[C@H](C)NC(=O)[C@H](CCCNC(=N)N)NC(=O)[C@H](C)NC(=O)[C@@H](NC(C)=O)[C@@H](C)O)CCCCCCC=CCCC[C@@](C)(C(=O)N[C@@H](CCC(=O)O)C(=O)N[C@@H](CO)C(=O)N[C@H](C(N)=O)C(C)C)NC(=O)[C@H](CCCCN)NC1=O [ms_ASC^PYD #5] (Ac-TARA[R8]KLAKIK[S5]ESV-NH2; staple 5-12) | reduced caspase-1 activation in a dose-dependent manner | the fluorescent intensity subsequently decreased over-time | > 60% | > 90% |
| CC[C@H](C)[C@@H]1NC(=O)[C@H](CCCCN)NC(=O)[C@H](C)NC(=O)[C@H](CCCCN)NC(=O)[C@H](CCCCN)NC(=O)[C@](C)(NC(=O)[C@H](C)NC(=O)[C@H](CCCNC(=N)N)NC(C)=O)CCCCCCC=CCCC[C@@](C)(C(=O)N[C@@H](CCC(=O)O)C(=O)N[C@@H](CO)C(=O)N[C@H](C(N)=O)C(C)C)NC(=O)[C@H](CCCCN)NC1=O [ms_ASC^PYD #6] (Ac-RA[R8]KKAKIK[S5]ESV-NH2; staple 3-10) | reduced caspase-1 activation in a dose-dependent manner | – | > 60% | > 90% |
